Consider 13 molecules from US9072698B2, “Method for screening anti-cancer compounds inhibiting function of TM4SF5 and anti-cancer composition containing chalcone compounds” (Seoul National University Industry Foundation, priority 2006, dated 2015).

Each structure is given as a SMILES string. Values after ≈ are worked out from the molar mass of the structure shown.

What all share (assay type): cell-based
Experiment [1] has as its system HCT15 (colon adenocarcinoma). In words: In vitro cytotoxicity, sulforhodamine B (SRB) method, HCT15. Conditions: Homo sapiens; HCT-15, SRB method; read-out: cytotoxicity (ED50) HCT-15. On the procedure:
(§1) The chalcone derivatives of the present invention were evaluated for in vitro cytotoxicity against human carcinoma cell lines using a sulforhodamine B (SRB) method, which was developed in 1989 by the National Cancer Institute (NCI), USA.
(§2) HCT15 (colon adenocarcinoma; ATCC CCL-225), PC-3 (prostate adenocarcinoma; ATCC CRL-1435), and A-549 (lung carcinoma; ATCC CCL-185) cell lines were used. All of these carcinoma cells were sub-cultured at the Korean Research Institute of Bioscience and Biotechnology (KRIBB), Korea.
(§3) The human carcinoma cell lines were cultured in 10% FCS-containing RPMI 1640 medium (Gibco Cat. No. 31800) in an incubator at 37° C. under 5% CO2, and sub-cultured twice per week.
(§4) Cells were detached from the attached surface using 0.25% Trypsin (Sigma) and 3 mM CDTA (1,2-cyclohexane diamine tetraacetic acid, Sigma) in phosphate buffered saline (PBS, Sigma).
(§5) Compounds to be tested (the chalcone derivatives set forth in Table 1) were dissolved in a small amount of dimethylsulfoxide (DMSO, Sigma), and diluted in culture medium to a desired concentration. The final concentration of DMSO was less than 0.5%. The diluted compounds (final concentration: 30, 10, 3, 1 and 0.3 μg/ml) were sterilized through a 0.22-μm microfilter (Millipore). The cytotoxicity of the compounds to human carcinoma cell lines was assessed using a typical SRB method.
(The SRB assay estimates cell density from bound dye.)

A further experiment has as its system A-549 (lung carcinoma). As to the kind of experiment: In vitro cytotoxicity, sulforhodamine B (SRB) method, A-549. Conditions: Homo sapiens, A549; A-549, SRB method; read-out: cytotoxicity (ED50) A-549. The method, then:
as §1, §2, §3, §4, §5

The subject of experiment [2] is PC-3 (prostate adenocarcinoma). In words: In vitro cytotoxicity, sulforhodamine B (SRB) method, PC-3. To be noted: Homo sapiens; PC-3, SRB method; read-out: cytotoxicity (ED50) PC-3. On the procedure:
as §1, §2, §3, §4, §5

`O=C(/C=C/c1ccc(O)cc1)c1ccc(NS(=O)(=O)c2ccc(O)cc2)cc1` [Compound 6, 4′-(p-hydroxybenzenesulfonylamino)-4-hydroxychalcone]: the IC50 in experiment [1] amounted to 37 µg/mL (≈ 93.6 µM); in the experiment on A-549 (lung carcinoma), 41 µg/mL (≈ 104 µM); in experiment [2], 33 µg/mL (≈ 83.5 µM).

With `O=C(/C=C/c1ccc(O)cc1)c1ccc(OS(=O)(=O)c2ccc(F)cc2)cc1` [Compound 36, 4′-(p-fluorobenzenesulfonate)-4-hydroxychalcone], the IC50 was 48 µg/mL (≈ 120 µM) in experiment [1], 41 µg/mL (≈ 103 µM) in the experiment on A-549 (lung carcinoma) and 39 µg/mL (≈ 97.9 µM) in experiment [2].

Consider `Cc1ccc(S(=O)(=O)Nc2cccc(C(=O)/C=C/c3ccc(O)c(O)c3)c2)cc1` [Compound 46, 3′-(p-toluenesulfonylamino)-3,4-dihydroxychalcone], for which the IC50 came out at 9 µg/mL (≈ 22 µM) in experiment [1], 13 µg/mL (≈ 31.7 µM) with A-549 (lung carcinoma) and 8 µg/mL (≈ 19.5 µM) in experiment [2].

As for `Nc1ccccc1S(=O)(=O)Nc1ccc(C(=O)/C=C/c2ccc(O)c(O)c2)cc1` [Compound 80, 4′-(o-aminobenzensulfonylamino)-3,4-dihydroxychalcone], the figures for the IC50 (in experiment [1]; in the experiment on A-549 (lung carcinoma); in experiment [2]) were 13 µg/mL (≈ 31.7 µM), 11 µg/mL (≈ 26.8 µM) and 23 µg/mL (≈ 56 µM), respectively.

For the molecule `O=C(/C=C/c1ccc(O)c(O)c1)c1ccc(NS(=O)(=O)c2ccc(O)cc2)cc1` [Compound 48, 4′-(p-hydroxybenzenesulfonylamino)-3,4-dihydroxychalcone], the figures for the IC50 (in experiment [1]; in the experiment with A-549 (lung carcinoma); in experiment [2]) were 7 µg/mL (≈ 17 µM), 8 µg/mL (≈ 19.4 µM) and 11 µg/mL (≈ 26.7 µM), respectively.

For `O=C(/C=C/c1ccc(O)cc1)c1ccccc1NS(=O)(=O)c1ccc(O)cc1` [Compound 12, 2′-(p-hydroxybenzenesulfonylamino)-4-hydroxychalcone], the IC50 came to 37 µg/mL (≈ 93.6 µM) in experiment [1], 35 µg/mL (≈ 88.5 µM) in the experiment with A-549 (lung carcinoma) and 37 µg/mL (≈ 93.6 µM) in experiment [2].

Take `O=C(/C=C/c1cccc(O)c1O)c1ccc(OS(=O)(=O)c2cccc(O)c2)cc1` [Compound 95, 4′-(m-hydroxybenzenesulfonate)-2,3-dihydroxychalcone]: the results for the IC50 (in experiment [1]; with A-549 (lung carcinoma); in experiment [2]) were 9 µg/mL (≈ 21.8 µM), 9 µg/mL (≈ 21.8 µM) and 11 µg/mL (≈ 26.7 µM), respectively.

In the case of `O=C(/C=C/c1cccc(O)c1O)c1ccc(OS(=O)(=O)c2ccc(O)cc2)cc1` [Compound 91, 4′-(p-hydroxybenzenesulfonate)-2,3-dihydroxychalcone], the results for the IC50 (in experiment [1]; in the experiment on A-549 (lung carcinoma); in experiment [2]) were 7 µg/mL (≈ 17 µM), 10 µg/mL (≈ 24.2 µM) and 14 µg/mL (≈ 33.9 µM), respectively.

Regarding `O=C(/C=C/c1ccc(O)cc1O)c1ccccc1NS(=O)(=O)c1cccc(O)c1` [Compound 70, 2′-(m-hydroxybenzenesulfonylamino)-2,4-dihydroxychalcone], the IC50 in experiment [1] was found to be 8 µg/mL (≈ 19.4 µM); in the experiment with A-549 (lung carcinoma) it was 9 µg/mL (≈ 21.9 µM); in experiment [2] it was 11 µg/mL (≈ 26.7 µM).

Consider `O=C(/C=C/c1cc(O)ccc1O)c1ccc(OS(=O)(=O)c2ccc(O)cc2)cc1` [Compound 93, 4′-(p-hydroxybenzenesulfonate)-2,5-dihydroxychalcone], for which the IC50 came to 6 µg/mL (≈ 14.5 µM) in experiment [1], 8 µg/mL (≈ 19.4 µM) in the experiment with A-549 (lung carcinoma) and 14 µg/mL (≈ 33.9 µM) in experiment [2].

In the case of `O=C(/C=C/c1ccc(O)c(O)c1)c1ccccc1NS(=O)(=O)c1ccc(O)cc1` [Compound 56, 2′-(p-hydroxybenzenesulfonylamino)-3,4-dihydroxychalcone], the IC50 in experiment [1] was determined as 5 µg/mL (≈ 12.2 µM); in the experiment with A-549 (lung carcinoma), 3 µg/mL (≈ 7.29 µM); in experiment [2], 6 µg/mL (≈ 14.6 µM).

Consider `O=C(/C=C/c1ccc(O)cc1O)c1ccccc1NS(=O)(=O)c1ccc(O)cc1` [Compound 58, 2′-(p-hydroxybenzenesulfonylamino)-2,4-dihydroxychalcone], for which the IC50 in experiment [1] worked out at 11 µg/mL (≈ 26.7 µM); in the experiment on A-549 (lung carcinoma), 12 µg/mL (≈ 29.2 µM); in experiment [2], 10 µg/mL (≈ 24.3 µM).

In the case of `O=C(/C=C/c1cccc(O)c1O)c1cccc(NS(=O)(=O)c2cccc(O)c2)c1` [Compound 65, 3′-(m-hydroxybenzenesulfonylamino)-2,3-dihydroxychalcone], the IC50 in experiment [1] worked out at 9 µg/mL (≈ 21.9 µM); in the experiment on A-549 (lung carcinoma) it was 4 µg/mL (≈ 9.72 µM); in experiment [2], 13 µg/mL (≈ 31.6 µM).
